Series [1] addresses T1, Poly [ADP-ribose] polymerase 1 (Homo sapiens, UniProt P09874). To be noted: HeLa.
Description: Ratio of inhibition of HeLa cell proliferation by MMS alone against MMS with PARP inhibitors
The target of series [2] is T1, Poly [ADP-ribose] polymerase 1. As to the kind of experiment: Inhibitory activity against PARP1.
A further series is filed under the species Mus musculus. Kind of series: Intrinsic clearance in mouse hepatic microsomes. It is filed as ADME, Liver, Microsome.
Series [3] in a line: Half life in rat at 10 mg/kg, iv. It counts as ADME, organism-based. Details: dose 10 mg/kg, route intravenous. To be noted: in vivo.
Series [4] can be described thus: Clearance in rat at 10 mg/kg, iv. It counts as ADME, organism-based. Further details: dose 10 mg/kg, route intravenous. To be noted: in vivo.
A short description of series [5]: Volume of distribution in rat at 10 mg/kg, iv. It counts as ADME, organism-based. Details: dose 10 mg/kg, route intravenous. To be noted: in vivo, read-out: Vdss.
Series [6] is described as follows: Aqueous solubility at pH 7.4. It is filed as physicochemical.
In another series the test system is CAPAN-1. Kind of series: Activity against BRCA2-deficient cells. It counts as functional, Homo sapiens.
The subject of a further series is RKO. Kind of series: Activity against wild type cells. It is filed as functional, Homo sapiens.

This note sets out measurements from ChEMBL document CHEMBL1138134, “Phthalazinones 2: Optimisation and synthesis of novel potent inhibitors of poly(ADP-ribose)polymerase” (Bioorg Med Chem Lett, 2006).

Values after ≈ are worked out from the molar mass of the structure shown.

T1 sequence (P09874 whole entry): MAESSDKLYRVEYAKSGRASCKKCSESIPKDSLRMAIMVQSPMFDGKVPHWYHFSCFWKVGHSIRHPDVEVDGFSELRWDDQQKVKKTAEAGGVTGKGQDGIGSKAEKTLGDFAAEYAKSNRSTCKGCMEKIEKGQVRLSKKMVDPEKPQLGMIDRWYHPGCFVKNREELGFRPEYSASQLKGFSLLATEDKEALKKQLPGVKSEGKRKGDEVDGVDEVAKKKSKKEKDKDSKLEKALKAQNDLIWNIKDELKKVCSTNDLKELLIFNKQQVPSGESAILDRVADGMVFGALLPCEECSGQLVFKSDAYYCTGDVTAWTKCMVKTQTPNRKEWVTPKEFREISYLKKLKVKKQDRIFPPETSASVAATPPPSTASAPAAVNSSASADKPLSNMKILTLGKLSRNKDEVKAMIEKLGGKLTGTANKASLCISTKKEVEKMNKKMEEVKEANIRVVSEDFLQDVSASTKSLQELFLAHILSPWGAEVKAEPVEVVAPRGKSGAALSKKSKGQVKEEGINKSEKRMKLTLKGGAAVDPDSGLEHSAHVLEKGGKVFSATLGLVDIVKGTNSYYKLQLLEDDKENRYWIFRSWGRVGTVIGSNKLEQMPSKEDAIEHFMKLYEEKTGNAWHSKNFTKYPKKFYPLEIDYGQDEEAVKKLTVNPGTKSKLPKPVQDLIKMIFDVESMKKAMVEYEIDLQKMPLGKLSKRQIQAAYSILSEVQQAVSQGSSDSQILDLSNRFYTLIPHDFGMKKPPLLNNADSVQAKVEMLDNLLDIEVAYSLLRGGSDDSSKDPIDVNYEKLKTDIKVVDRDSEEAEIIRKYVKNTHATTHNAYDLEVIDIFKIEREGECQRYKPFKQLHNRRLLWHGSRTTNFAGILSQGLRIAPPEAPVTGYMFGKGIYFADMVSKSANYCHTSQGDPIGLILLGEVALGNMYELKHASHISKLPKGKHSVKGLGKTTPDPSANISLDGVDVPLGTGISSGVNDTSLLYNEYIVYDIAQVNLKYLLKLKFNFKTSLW

`O=C(c1cccc(Cc2nnc(O)c3ccccc23)c1)N1CCCN(S(=O)(=O)c2ccc(-c3ccccc3)cc2)CC1`: in series [1], the PF50 is 3.2.

`CCCN1CCCN(C(=O)c2cccc(Cc3nnc(O)c4ccccc34)c2)CC1`: the PF50 in series [1] came out at 2.5.

The compound `O=C(c1cccc(Cc2nnc(O)c3ccccc23)c1)N1CCCN(S(=O)(=O)c2cccc(C(F)(F)F)c2)CC1` yielded a PF50 in series [1] of 2.1.

In turn, `CCC(C)CN(C)C(=O)C1CCN(C(=O)c2cccc(Cc3nnc(O)c4ccccc34)c2)CC1` (stereo unspecified) had a PF50 in series [1] of 2.6.

One may read the IC50 as the concentration at which inhibition is half-maximal. On to `CCOC(=O)C1CCN(C(=O)c2cccc(Cc3n[nH]c(=O)c4ccccc34)c2)CC1`, for which the half-maximal inhibitory concentration (IC50) in series [2] came to 15 nM.

Consider `CN1CCCN(C(=O)c2cc(Cc3nnc(O)c4ccccc34)ccc2F)CC1`, for which the midpoint of inhibition in series [2], the IC50, lay at 9 nM. The same compound showed a PF50 in series [1] of 5.5.

In turn, `O=C(c1cccc(Cc2nnc(O)c3ccccc23)c1)N1CCCN(CC2CC2)CC1` yielded a PF50 in [1] of 3.1.

With `O=C(c1cccc(Cc2n[nH]c(=O)c3ccccc23)c1)N1CCCN(CC2CC2)CC1`, the IC50 in [2] is 14 nM.

Regarding `O=C(c1cccc(Cc2nnc(O)c3ccccc23)c1)N1CCCNCC1`, in series [1], the PF50 was determined as 2.4.

As to `CN(Cc1ccccc1)C(=O)C1CCN(C(=O)c2cccc(Cc3nnc(O)c4ccccc34)c2)CC1`, in series [2], half-maximal inhibition (IC50) required 9 nM. The compound also registered a PF50 in [1] of 2.1.

For the compound `O=C(c1cccc(Cc2nnc(O)c3ccccc23)c1)N1CCC(C(=O)N2CCCCC2)CC1`, it took 15 nM to reach half-maximal inhibition in series [2] (IC50). The PF50 in series [1] turned out to be 3.9.

On to `O=C(c1cccc(Cc2n[nH]c(=O)c3ccccc23)c1)N1CCNCC1`, for which the PF50 in series [1] came out at 3.7.

As for `CCNC(=O)c1cccc(Cc2n[nH]c(=O)c3ccccc23)c1`, the CL in the series listed under Mus musculus was < 1 mL/min/g. Also, in series [1], the PF50 came out at 2.1.

With `O=C(c1cc(Cc2n[nH]c(=O)c3ccccc23)ccc1F)N1CCCN(CC2CC2)CC1`, the IC50 in series [2] is 5 nM.

As for `COc1cccc(CCC(=O)N2CCCN(C(=O)c3cccc(Cc4nnc(O)c5ccccc45)c3)CC2)c1`, the IC50 in [2] stood at 8 nM. In series [1], this compound returned a PF50 of 2.5.

On to `O=C(c1cccc(Cc2nnc(O)c3ccccc23)c1)N1CCc2ccccc2C1`, for which, in series [2], the IC50 stood at 8 nM. For the same compound, in [1], the PF50 was found to be 3.4.

`O=C(c1cc(Cc2nnc(O)c3ccccc23)ccc1F)N1CCCN(C2CCCCC2)CC1` gave a PF50 in series [1] of 6.3.

Compound `Cc1noc(C)c1S(=O)(=O)N1CCCN(C(=O)c2cccc(Cc3nnc(O)c4ccccc34)c2)CC1` returned a PF50 in series [1] of 2.1.

Compound `O=C(NCCc1cccs1)C1CCN(C(=O)c2cccc(Cc3nnc(O)c4ccccc34)c2)CC1` had an IC50 in series [2] of 8 nM. The compound further gave a PF50 in series [1] of 2.8.

Consider `COc1cc(C(=O)N2CCCN(C(=O)c3cccc(Cc4n[nH]c(=O)c5ccccc45)c3)CC2)cc(Cl)n1`, for which the IC50 in series [2] is 9 nM.

On to `CCC(=O)Nc1cccc(Cc2n[nH]c(=O)c3ccccc23)c1`, for which the CL in the series filed under Mus musculus stood at 12 mL/min/g. This compound yielded a PF50 in series [1] of 2.3.

`CC1CCN(C(=O)C2CCN(C(=O)c3cccc(Cc4n[nH]c(=O)c5ccccc45)c3)CC2)CC1`: the IC50 in series [2] was found to be 8 nM.

Regarding `COc1ccc(NC(=O)N2CCCN(C(=O)c3cccc(Cc4nnc(O)c5ccccc45)c3)CC2)cc1`, the PF50 in [1] turned out to be 2.2.

As for `COc1cc(C(=O)N2CCCN(C(=O)c3cccc(Cc4nnc(O)c5ccccc45)c3)CC2)cc(Cl)n1`, in series [1], the PF50 turned out to be 2.5.

Compound `O=C(c1cccc(Cc2n[nH]c(=O)c3ccccc23)c1)N1CCOCC1` yielded a concentration for half-maximal inhibition (IC50) in series [2] of 40 nM.

With `COc1cc2c(cc1OC)CN(C(=O)C1CCN(C(=O)c3cccc(Cc4nnc(O)c5ccccc45)c3)CC1)CC2`, the PF50 in series [1] stood at 4.1.

On to `Cc1noc(C)c1S(=O)(=O)N1CCCN(C(=O)c2cccc(Cc3n[nH]c(=O)c4ccccc34)c2)CC1`, for which it took 12 nM to reach half-maximal inhibition in series [2] (IC50).

Turning to `CC(C)CNC(=O)C1CCN(C(=O)c2cccc(Cc3nnc(O)c4ccccc34)c2)CC1`, inhibition in series [2] was half-maximal at 16 nM (IC50). Moreover, in series [1], the PF50 was 2.

Take `CCCN1CCCN(C(=O)c2cc(Cc3nnc(O)c4ccccc34)ccc2F)CC1`: the IC50 in [2] came to 5 nM. The compound also registered a PF50 in [1] of 7.

Turning to `COc1cc2c(cc1OC)CN(C(=O)C1CCN(C(=O)c3cccc(Cc4n[nH]c(=O)c5ccccc45)c3)CC1)CC2`, the IC50 in [2] worked out at 16 nM.

For the compound `CN(C)CCN(C)C(=O)c1cccc(Cc2nnc(O)c3ccccc23)c1`, the 50% inhibitory concentration (IC50) in series [2] worked out at 46 nM. In series [1], this compound returned a PF50 of 2.2.

The compound `CCN1CCCN(C(=O)c2cccc(Cc3nnc(O)c4ccccc34)c2)CC1` came in with an IC50 in series [2] of 15 nM. In addition, in series [1], the PF50 turned out to be 2.6.

In turn, `CN1CCCN(C(=O)c2cccc(Cc3nnc(O)c4ccccc34)c2)CC1` had an IC50 in series [2] of 23 nM. In addition, the PF50 in series [1] is 1.8.

In series [2], `O=C(c1cccc(Cc2nnc(O)c3ccccc23)c1)N1CCCN(C2CCCCC2)CC1` returned an IC50 of 6 nM. Further, the PF50 in series [1] came to 6.6.

`O=C(c1cccc(Cc2nnc(O)c3ccccc23)c1)N1CCOCC1` showed a PF50 in series [1] of 1.2.

Compound `O=C(c1cccc(Cc2n[nH]c(=O)c3ccccc23)c1)N1CCCNCC1` displayed an IC50 in series [2] of 9 nM.

With `CCCN1CCCN(C(=O)c2cccc(Cc3n[nH]c(=O)c4ccccc34)c2)CC1`, the IC50 in series [2] is 10 nM.

Regarding `O=C(NC1CCCC1)C1CCN(C(=O)c2cccc(Cc3nnc(O)c4ccccc34)c2)CC1`, the IC50 in series [2] was found to be 15 nM. Further, the PF50 in [1] was determined as 2.5.

`O=C(c1cc(Cc2nnc(O)c3ccccc23)ccc1F)N1CCCN(CC2CC2)CC1`: the PF50 in series [1] worked out at 6.7.

Turning to `CCOC(=O)C1CCN(C(=O)c2cccc(Cc3nnc(O)c4ccccc34)c2)CC1`, the PF50 in [1] turned out to be 2.1.

Turning to `CCC(C)CN(C)C(=O)C1CCN(C(=O)c2cccc(Cc3n[nH]c(=O)c4ccccc34)c2)CC1` (stereo unspecified), 9 nM corresponded to half-maximal inhibition in series [2] (IC50).

Take `CC1CCN(C(=O)C2CCN(C(=O)c3cccc(Cc4nnc(O)c5ccccc45)c3)CC2)CC1`: the PF50 in [1] stood at 4.4.

In general, half-life refers to the time in which the quantity being followed falls by half. One may read the clearance as a measure of how efficiently the substance is removed, as volume per time. A high value points to efficient removal. A word on the solubility: it is how much of the substance goes into solution per volume. Higher therefore signals much dissolved substance. Regarding `O=C(c1cc(Cc2n[nH]c(=O)c3ccccc23)ccc1F)N1CCCNCC1`, the half-life in series [3] is 1 h. This compound also registered a clearance in series [4] of 54 mL/min/kg. For the same compound, the Vd in series [5] is 2.1 L/kg. In series [6], this compound gave a solubility of 5100 µg/mL (≈ 13.4 mM). For the same compound, in series [2], the IC50 came out at 7 nM. The SF50 in the series with CAPAN-1 turned out to be 15 nM; in the series with RKO it was 2 µM. This compound also displayed a PF50 in series [1] of 12.6.

In [1], `CCN1CCCN(C(=O)c2cc(Cc3nnc(O)c4ccccc34)ccc2F)CC1` showed a PF50 of 6.7.
